Each block holds one compound with its values, some of them ahead of it. Active and inactive are the calls of the source. No cut-off for these calls is given here.
How the values were obtained:
Rattus norvegicus [1] = assay: Gastrointestinal toxicity in rat assessed as ulcerogenic index at dose equimolar to 100 mg/kg of diclofenac, po after 5 hrs; type: organism-based; design: dose 100 mg/kg, route oral; settings: in vivo
Rattus norvegicus [2] = assay: AUC in rat at po dose of equimolar to aspirin; type: ADME, organism-based, Plasma; settings: in vivo
Rattus norvegicus [3] = assay: Gastrointestinal toxicity in rat assessed as ulcerogenic index at dose equimolar to 100 mg/kg of aspirin, po after 3 hrs; type: organism-based; design: dose 100 mg/kg, route oral; settings: in vivo
Rattus norvegicus [4] = assay: Effect on nitric oxide release in rat assessed as plasma nitrate/nitrite concentration at dose equimolar to 10 mg/kg of diclofenac, po by Griess method; type: functional, organism-based; design: dose 10 mg/kg
[5] = AUC in rat at 10 mg/kg, po; type: ADME, organism-based; design: dose 10 mg/kg, route oral; settings: plasma
Rattus norvegicus [6] = assay: Antiinflammatory activity against carrageenan-induced paw edema in rat at 10 mg/kg, po administered 1 hr before carrageenan challenge measured after 4 hrs by plethysmometer; type: functional
Rattus norvegicus [7] = assay: Antiinflammatory activity against carrageenan-induced paw edema in rat at 10 mg/kg, po administered 1 hr before carrageenan challenge measured after 6 hrs by plethysmometer; type: functional
Rattus norvegicus [8] = assay: Gastrointestinal toxicity in rat assessed as ulcerogenic index at 100 mg/kg, po after 3 hrs; type: organism-based; design: dose 100 mg/kg, route oral; settings: in vivo
Rattus norvegicus [9] = assay: Antiinflammatory activity against carrageenan-induced paw edema in rat at dose equimolar to 150 mg/kg aspirin, po administered 1 hr before carrageenan challenge measured after 4 hrs by plethysmometer; type: functional; settings: at 150 mg/kg
Rattus norvegicus [10] = assay: Antiinflammatory activity against carrageenan-induced paw edema in rat at dose equimolar to 150 mg/kg aspirin, po administered 1 hr before carrageenan challenge measured after 6 hrs by plethysmometer; type: functional
[11] = AUC in rat at 150 mg/kg, po; type: ADME, organism-based; design: dose 150 mg/kg, route oral; settings: plasma
Rattus norvegicus [12] = assay: Antiinflammatory activity against carrageenan-induced paw edema in rat at 150 mg/kg, po administered 1 hr before carrageenan challenge measured after 4 hrs by plethysmometer; type: functional
Rattus norvegicus [13] = assay: Antiinflammatory activity against carrageenan-induced paw edema in rat at 150 mg/kg, po administered 1 hr before carrageenan challenge measured after 6 hrs by plethysmometer; type: functional
Rattus norvegicus [14] = assay: Gastrointestinal toxicity in rat assessed as ulcerogenic index at 100 mg/kg, po after 5 hrs; type: organism-based; design: dose 100 mg/kg, route oral; settings: in vivo
Rattus norvegicus [15] = assay: AUC in rat at 35 mg/kg, po; type: ADME, organism-based, Plasma; design: dose 35 mg/kg, route oral; settings: in vivo
Rattus norvegicus [16] = assay: Antiinflammatory activity against carrageenan-induced paw edema in rat at dose equimolar to 10 mg/kg aspirin, po administered 1 hr before carrageenan challenge measured after 6 hrs by plethysmometer; type: functional

SMILES: O=C(Cc1ccccc1Nc1c(Cl)cccc1Cl)OCCSSCCO[N+](=O)[O-]
- UI (Rattus norvegicus [3]): 0 mm2
- Activity (Rattus norvegicus [4]): Active

SMILES: CC(=O)Oc1ccccc1C(=O)OCC(=O)OCCSSCCO[N+](=O)[O-]
- inhibition (Rattus norvegicus [9]): inactive
- Activity (Rattus norvegicus [10]): inactive

SMILES: O=C(COC(=O)Cc1ccccc1Nc1c(Cl)cccc1Cl)OCCSSCCO[N+](=O)[O-]
- Activity (Rattus norvegicus [16]): inactive

Now from value to compound, other results behind:

- AUC (Rattus norvegicus [2]): 749 ug/hr.ml
SMILES: CC(=O)Oc1ccccc1C(=O)OCCSSCCO[N+](=O)[O-]
- UI (Rattus norvegicus [1]): 0 mm2

- AUC [5]: 65 µg·h/mL
SMILES: O=C(O)Cc1ccccc1Nc1c(Cl)cccc1Cl [DICLOFENAC]
- Activity (Rattus norvegicus [6]): 55%
- inhibition in vivo at 10 mg/kg (Rattus norvegicus [7]): 21%
- UI (Rattus norvegicus [8]): 108 mm2

- AUC [11]: 4050 µg·h/mL
- AUC (Rattus norvegicus [15]): 909 ug/hr.ml
SMILES: CC(=O)Oc1ccccc1C(=O)O [ASPIRIN]
- inhibition in vivo at 150 mg/kg (Rattus norvegicus [12]): 30%
- inhibition in vivo at 150 mg/kg (Rattus norvegicus [13]): 31%
- UI (Rattus norvegicus [14]): 99 mm2

Source: ChEMBL document CHEMBL1155994, “NO-NSAIDs: Gastric-sparing nitric oxide-releasable prodrugs of non-steroidal anti-inflammatory drugs” (Bioorg Med Chem Lett, 2009)
